In one test the target is TDO2 (Homo sapiens, UniProt P48775). As to the kind of experiment: cell-based.
In a further test the target is IDO1 (Homo sapiens, UniProt P14902). In words: cell-based.

The structures appear in SMILES notation.

Here are results for 39 molecules from patent US11827639B2, “TDO2 and IDO1 inhibitors” (Genentech, Inc., priority 2017, dated 2023).

The term EC50 denotes the concentration needed to bring the measured effect to its halfway point. The low end stands for a more potent agent, the high end for a less potent agent.

TDO2, sequence (P48775 whole entry): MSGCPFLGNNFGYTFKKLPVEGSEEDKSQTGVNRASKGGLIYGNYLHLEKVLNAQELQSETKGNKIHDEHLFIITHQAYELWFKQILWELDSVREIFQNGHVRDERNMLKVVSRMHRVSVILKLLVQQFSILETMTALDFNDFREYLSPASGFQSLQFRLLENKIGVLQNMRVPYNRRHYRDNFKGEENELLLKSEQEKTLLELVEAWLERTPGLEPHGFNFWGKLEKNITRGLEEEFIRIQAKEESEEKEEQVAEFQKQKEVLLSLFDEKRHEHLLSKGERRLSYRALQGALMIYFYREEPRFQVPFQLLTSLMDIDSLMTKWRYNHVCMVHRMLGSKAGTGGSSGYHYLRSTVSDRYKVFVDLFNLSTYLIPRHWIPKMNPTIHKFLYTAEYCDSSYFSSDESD
IDO1, sequence (P14902 whole entry): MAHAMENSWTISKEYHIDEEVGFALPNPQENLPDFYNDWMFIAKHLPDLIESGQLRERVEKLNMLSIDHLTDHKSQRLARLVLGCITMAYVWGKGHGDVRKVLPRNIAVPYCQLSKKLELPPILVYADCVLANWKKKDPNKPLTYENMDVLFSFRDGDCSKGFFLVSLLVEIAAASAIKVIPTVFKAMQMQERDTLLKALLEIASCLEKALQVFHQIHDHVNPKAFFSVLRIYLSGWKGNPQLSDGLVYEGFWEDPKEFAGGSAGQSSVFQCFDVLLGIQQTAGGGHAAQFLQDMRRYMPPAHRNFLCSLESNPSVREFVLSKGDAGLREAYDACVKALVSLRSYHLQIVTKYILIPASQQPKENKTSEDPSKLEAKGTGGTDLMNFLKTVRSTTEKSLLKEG
Procedure for IDO1: (§1) The NFK GreenScreen™ (NTRC, Netherlands) uses a specific chemical probe that binds to N-Formylkynurenine (NFK), a product of tryptophan catabolism facilitated by IDO or TDO and causes fluorescence at 510 nm when excited at 410 nm. […] The assay is multiplexed with Cell Titer-Glo® (Promega) to determine if compounds are cytotoxic. […] Cells are counted on a Vi-Cell (Beckman Coulter). SW48 cells are diluted to 1×10^6 cells/ml in assay media. A172 cells are diluted to 0.24×10^6 cells/ml in assay media. […] 5 ul of assay media containing 1.2 mM tryptophan are added to the SW48 cells for a final concentration of 200 uM tryptophan in each well. 5 ul of assay media containing 600 uM tryptophan and 600 ng/ml IFNγ are added to the A172 cells for a final concentration of 100 uM tryptophan and 100 ng/ml IFNγ in each well. The final DMSO concentration is 0.5%. Cell plates are placed at room temperature in a closed TC hood with the blower off to allow cells to settle for approximately 30 min. Plates are then moved to an incubator set at 37° C., 5% CO2 for 24 hours. After the 24 hour compound incubation, 8 ul of NFK green reagent is added to each well with a Multidrop™ Combi dispenser (Thermo Scientific). Plates are sealed and incubated at 37° C., 5% CO2 for 5 hours, then read on a PHERAstar® (BMG labtech). Data are analyzed by normalizing to DMSO and high inhibitor controls. After the plates have been read for NFK green, 25 ul of Cell Titer-Glo® (Promega) are added to each well, incubated for 15 minutes at room temperature, and read on the Envision (Perkin Elmer). Cell Titer-Glo data are analyzed by normalizing to the DMSO controls. Four-parameter curve fitting is used and EC50 data are reported.
Procedure for TDO2: as §1

`c1ccc2c(c1)-c1cncn1C2C1CCn2nccc2C1` (single isomer, unassigned) [Example 05a] showed an EC50 on TDO2 of 1100 nM. Molecule `c1ccc2c(c1)-c1cncn1C2C1CCn2nccc2C1` (single isomer, unassigned) [Example 05b] yielded an EC50 at TDO2 of 1700 nM. Turning to `c1ccc2c(c1)-c1cncn1C2C1CCn2nccc2C1` (single isomer, unassigned) [Example 05c], on TDO2, the EC50 came to 24000 nM.

With `NS(=O)(=O)c1cccc(C2c3ccccc3-c3cncn32)c1` (single isomer, unassigned) [Example 07a], the EC50 on TDO2 worked out at 7200 nM. This EC50 is about 3.3-fold lower than that of the molecule before. As for `NS(=O)(=O)c1cccc(C2c3ccccc3-c3cncn32)c1` (single isomer, unassigned) [Example 07b], the concentration giving a half-maximal response (EC50) at IDO1 was 6.5 µM; at TDO2, 790 nM. On to `OCc1cc(F)cc(C2c3ccccc3-c3cncn32)c1` (single isomer, unassigned) [Example 09a], for which the values for the EC50 at IDO1 and on TDO2 were 21 µM and 690 nM, respectively.

`OCc1cc(F)cc(C2c3ccccc3-c3cncn32)c1` (single isomer, unassigned) [Example 09b]: the concentration for a half-maximal effect (EC50) was found to be 3.3 µM on IDO1 and 96 nM at TDO2. The molecule `CC(O)c1cccc(C2c3ccccc3-c3cncn32)c1` (single isomer, unassigned) [Example 10b] gave an EC50 on TDO2 of 5700 nM. As to `CC(O)c1cccc(C2c3ccccc3-c3cncn32)c1` (single isomer, unassigned) [Example 10c], the EC50 at IDO1 amounted to 22 µM; on TDO2, 590 nM.

Take `CC(O)c1cccc(C2c3ccccc3-c3cncn32)c1` (single isomer, unassigned) [Example 10d]: the EC50 on TDO2 was found to be 5000 nM. That is a single-digit micromolar value. For the molecule `NC(=O)C1CCC(C2c3ccccc3-c3cncn32)CC1` (single isomer, unassigned) [Example 60b], the concentration for a half-maximal effect (EC50) on IDO1 was 1.5 µM; at TDO2, 270 nM. In turn, `NC(=O)C1CCC(C2c3ccccc3-c3cncn32)CC1` (single isomer, unassigned) [Example 60c] gave an EC50 at IDO1 of 6.4 µM. For the molecule `NC(=O)C1CCC(C2c3ccccc3-c3cncn32)CC1` (single isomer, unassigned) [Example 60d], the 50% effective concentration (EC50) is 17 µM at IDO1 and 10000 nM on TDO2. For the molecule `CS(=O)(=O)N1CC2(CC(C3c4ccccc4-c4cncn43)C2)C1` (single isomer, unassigned) [Example 72a], the results for the EC50 on IDO1 and at TDO2 were 3 µM and 730 nM, respectively. On TDO2, `CS(=O)(=O)N1CC2(CC(C3c4ccccc4-c4cncn43)C2)C1` (single isomer, unassigned) [Example 72b] registered a half-maximal effective concentration (EC50) of 17000 nM. On to `NS(=O)(=O)N1CCC(C2c3ccc(F)cc3-c3cncn32)CC1` (single isomer, unassigned) [Example 74b], for which the figures for the EC50 at IDO1 and on TDO2 were 4.8 µM and 64 nM, respectively.

As for `CS(=O)(=O)N1CC2(CCC(C3c4ccccc4-c4cncn43)CC2)C1` (single isomer, unassigned) [Example 78a], the EC50 at IDO1 is 18 µM; on TDO2, 10000 nM. Regarding `CS(=O)(=O)N1CC2(CCC(C3c4ccccc4-c4cncn43)CC2)C1` (single isomer, unassigned) [Example 78b], the concentration giving a half-maximal response (EC50) on IDO1 worked out at 1.4 µM; at TDO2, 2500 nM. As for `Cn1cc(C2c3ccccc3-c3cncn32)cn1` (single isomer, unassigned) [Example 79a], the EC50 at TDO2 was 10000 nM. As for `Cn1cc(C2c3ccccc3-c3cncn32)cn1` (single isomer, unassigned) [Example 79b], the EC50 was found to be 8.5 µM on IDO1 and 530 nM on TDO2. Molecule `CS(=O)(=O)C1CCC(C2c3ccccc3-c3cncn32)CC1` (single isomer, unassigned) [Example 83a] showed an EC50 at TDO2 of 22000 nM. For `CS(=O)(=O)C1CCC(C2c3ccccc3-c3cncn32)CC1` (single isomer, unassigned) [Example 83b], the EC50 at IDO1 was 2.3 µM; on TDO2, 770 nM.

For the molecule `Cn1cc(C2c3ccccc3-c3cncn32)ccc1=O` (single isomer, unassigned) [Example 84a], on TDO2, the midpoint of the response, the EC50, lay at 7100 nM.

In the case of `Cn1cc(C2c3ccccc3-c3cncn32)ccc1=O` (single isomer, unassigned) [Example 84b], the results for the EC50 at IDO1 and at TDO2 were 12 µM and 360 nM, respectively. As to `OCc1cccc([C@@H]2c3ccccc3-c3cncn32)c1` [Example 01a, (R)-(3-(5H-imidazo[5,1-a]isoindol-5-yl)phenyl)methanol], the EC50 on TDO2 stood at 11000 nM. This counts as double-digit micromolar.

Take `OCc1cccc([C@H]2c3ccccc3-c3cncn32)c1` [Example 01b, (S)-(3-(5H-imidazo[5,1-a]isoindol-5-yl)phenyl)methanol]: the figures for the EC50 at IDO1 and on TDO2 were 8.5 µM and 310 nM, respectively. For the molecule `OCc1cccc(C2c3ccccc3-c3cncn32)n1` (stereo not shown) [Example 03, (6-(5H-imidazo[5,1-a]isoindol-5-yl)pyridin-2-yl)methanol], the EC50 on TDO2 came to 13000 nM. As for `C1=C(C2c3ccccc3-c3cncn32)CCn2cccc21` (stereo not shown) [Example 04, 5-(5,6-dihydroindolizin-7-yl)-5H-imidazo[5,1-a]isoindole], the EC50 turned out to be 12 µM on IDO1 and 2300 nM on TDO2. At TDO2, `OCc1ccc(F)c(C2c3ccccc3-c3cncn32)c1` (stereo not shown) [Example 08, (4-fluoro-3-(5H-imidazo[5,1-a]isoindol-5-yl)phenyl)methanol] yielded an EC50 of 1500 nM. On to `C[C@H](O)c1cccc([C@H]2c3ccccc3-c3cncn32)c1` [Example 10a, (S)-1-(3-((S)-5H-imidazo[5,1-a]isoindol-5-yl)phenyl)ethan-1-ol], for which the results for the EC50 on IDO1 and on TDO2 were 5 µM and 320 nM, respectively. With `NC(=O)c1cccc(C2c3ccccc3-c3cncn32)c1` (stereo not shown) [Example 11, 3-(5H-imidazo[5,1-a]isoindol-5-yl)benzamide], on TDO2, the EC50 was determined as 650 nM. Turning to `c1ccc2c(c1)-c1cncn1C2CCC1CCCCC1` (stereo not shown) [Example 22, 5-(2-cyclohexylethyl)-5H-imidazo[5,1-a]isoindole], on TDO2, the midpoint of the response, the EC50, lay at 2300 nM. The same measure, in the same setting: with `CCS(=O)(=O)N1CC(C2c3ccccc3-c3cncn32)C1` (stereo not shown) [Example 25, 5-(1-(ethylsulfonyl)azetidin-3-yl)-5H-imidazo[5,1-a]isoindole] the figure was 14000 nM; with `c1cncc(C2c3ccccc3-c3cncn32)c1` (stereo not shown) [Example 37, 5-(pyridin-3-yl)-5H-imidazo[5,1-a]isoindole], 4100 nM. `c1ccc2c(c1)-c1cncn1C2c1ccncc1` (stereo not shown) [Example 41, 5-(pyridin-4-yl)-5H-imidazo[5,1-a]isoindole] displayed an EC50 on TDO2 of 2500 nM. Consider `N#CC1(CC2c3ccccc3-c3cncn32)CC1` (stereo not shown) [Example 48, 1-((5H-imidazo[5,1-a]isoindol-5-yl)methyl)cyclopropane-1-carbonitrile], for which the EC50 at TDO2 turned out to be 6200 nM. `NC(=O)C1(CC2c3ccccc3-c3cncn32)CC1` (stereo not shown) [Example 54, 1-((5H-imidazo[5,1-a]isoindol-5-yl)methyl)cyclopropane-1-carboxamide] returned an EC50 on TDO2 of 5400 nM. The molecule `CCS(=O)(=O)Nc1cc2n(n1)CCC(C1c3ccccc3-c3cncn31)=C2` (stereo not shown) [Example 68, N-(5-(5H-imidazo[5,1-a]isoindol-5-yl)-6,7-dihydropyrazolo[1,5-a]pyridin-2-yl)ethanesulfonamide] registered an EC50 on TDO2 of 1400 nM. Still for that read-out and setting: with `c1ccc2c(c1)-c1cncn1C2c1cnn2c1CCC2` (stereo not shown) [Example 87, 5-(5,6-dihydro-4H-pyrrolo[1,2-b]pyrazol-3-yl)-5H-imidazo[5,1-a]isoindole] the figure was 2700 nM.
